SMILES strings stand for the structures. Like-named read-outs stand apart in the source and are kept apart here.

The results in this text go back to patent US20050239874A1, “Novel analgesic and immunomodulatory cannabinoids” (University of Connecticut, priority 1998, published 2005).

In one assay the target is T1, CB2 receptor (Mus musculus, UniProt P47936).
T1 construct: Mouse spleen was used a source of CB2 receptors; from tissue; host or cells: mouse spleen
The assay can be described thus: Radioligand binding assay ([3H]CP-55,940 displacement), mouse spleen as source of CB2. To be noted: for selectivity for the CB2 receptor: CB2 over CB1, statement in words. Here is the method:
(§1) Approximately 30 μg of tissue was incubated in silanized 96 well microtiter plate with TME containing 0.1% essentially fatty acid free bovine serum albumin (BSA), 0.8 nM CH^3]CP-55,940 and various concentrations of the test compound in a final volume of 200 μL. Assays were incubated at 30° C. for 1 hour. The samples were filtered using Packard Filtermate 196 and Whatman GF/C Filterplates and washed with wash buffer (TME) containing 0.5% BSA. Radioactivity was detected using MicroScint 20 scintillation cocktail added directly to the dried filterplates, and the filterplates were counted using a Packard Instruments Top-Count. Nonspecific binding was assessed using 100 nM CP-55,940. Data collected from three independent experiments performed with duplicate determinations were normalized between 100% and 0% specific binding for [H^3]CP-55,940, determined using buffer and 100 nM CP-55,940. The normalized data was analyzed using a 4 parameter nonlinear logistic equation to yield IC50 values. Data from at least two independent experiments performed in duplicate were used to calculate IC50 values which were convered to Ki values using the assumptions of Cheng and Prusoff, Biochem. Pharmacol., 22:3099 (1973), the entire teachings of which are incorporated herein by reference.
Mouse spleen was used a source of CB2 receptors to assess binding affinity of analogs described in this invention. The CB2 binding assay was conducted in the same manner as for CB1. Silanized centrifuge tubes were used throughout to minimize receptor loss due to adsorption.

Another assay concerns the target T2, CB1 receptor (Rattus norvegicus, UniProt P20272).
T2 construct: using rat forebrain membranes as a source of CB1; from tissue; host or cells: rat forebrain (whole brain minus cerebral cortex) membranes
Briefly: Radioligand binding assay ([3H]CP-55,940 displacement), rat forebrain membranes as source of CB1. Here is the method: The binding affinities of the novel compounds described in this invention for the central cannabinoid receptor was assessed using rat forebrain membranes as a source of CB1. Membranes were prepared as described by the method of Dodd et al., Brain Res. 226:107 (1981), the entire teachings of which are incorporated herein by reference. Rat whole brains minus the cerebral cortex were diced with a razor blade and homogenized in 0.32 M sucrose, pH 7.4. The resulting suspension was spun at 400×g at 4° C. The supernatant was decanted and layered over 1.2 M sucrose in TME buffer (25 mM Tris base, 5 mM MgCl2 1 mMEDTA, pH 7.4) and spun at 109,000×g. The interface containing plasma membrane protein was collected, pooled and layered over 0.8 M sucrose in TME, pH 7.4. The pellet was carefully resuspended in TME, pH 7.4 and the total protein content was assayed by the method of Markwell et al., Anal. Biochem. 87:206 (1978), the entire teachings of which are incorporated herein by reference. Protein was aliquotted, frozen under liquid nitrogen and stored at −80° C. until use.
as §1

Setting [1] is: Ki for the CB2 receptor, refers to Example 2.
Setting [2] is: Ki in nM for the CB2 Receptor, mouse spleen, [3H]CP-55,940, Ki from IC50 by Cheng and Prusoff.
The mark [3] stands for this setting: Ki in nM for the CB1 Receptor, rat forebrain membranes, 0.8 nM [3H]CP-55,940, Ki from IC50 by Cheng and Prusoff.
[4] abbreviates: rat forebrain membranes, 0.8 nM [3H]CP-55,940, Ki from IC50 by Cheng and Prusoff, read-out: Ki in nM for the CB1 Receptor.
Setting [5] is: Ki for the CB1 receptor, refers to Example 2.

T1 sequence (P47936 whole entry): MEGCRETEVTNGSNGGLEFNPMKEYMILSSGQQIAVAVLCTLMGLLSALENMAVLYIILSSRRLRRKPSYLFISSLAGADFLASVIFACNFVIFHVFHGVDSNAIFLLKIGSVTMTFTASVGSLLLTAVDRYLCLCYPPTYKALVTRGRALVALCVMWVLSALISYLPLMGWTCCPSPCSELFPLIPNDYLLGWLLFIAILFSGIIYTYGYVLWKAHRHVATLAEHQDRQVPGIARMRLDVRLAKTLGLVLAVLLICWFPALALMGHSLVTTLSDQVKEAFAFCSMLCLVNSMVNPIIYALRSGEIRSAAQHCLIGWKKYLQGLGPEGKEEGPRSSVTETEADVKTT
T2 sequence (P20272 whole entry): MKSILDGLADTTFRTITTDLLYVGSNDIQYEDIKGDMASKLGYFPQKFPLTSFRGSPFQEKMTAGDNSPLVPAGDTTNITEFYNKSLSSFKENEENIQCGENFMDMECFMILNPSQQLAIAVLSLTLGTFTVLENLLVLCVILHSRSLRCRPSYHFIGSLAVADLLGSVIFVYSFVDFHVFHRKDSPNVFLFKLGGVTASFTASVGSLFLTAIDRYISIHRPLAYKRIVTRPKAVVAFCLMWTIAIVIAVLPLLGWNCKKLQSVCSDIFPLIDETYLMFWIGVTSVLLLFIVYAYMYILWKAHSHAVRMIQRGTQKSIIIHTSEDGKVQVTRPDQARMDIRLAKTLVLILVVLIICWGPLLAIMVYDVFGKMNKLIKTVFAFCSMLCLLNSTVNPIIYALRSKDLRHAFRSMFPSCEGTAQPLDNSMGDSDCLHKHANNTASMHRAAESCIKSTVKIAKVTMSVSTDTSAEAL

Regarding `CC1=CC[C@@H]2[C@@H](C1)c1c(O)cc(C3CC4CCC3(C)C4(C)C)cc1OC2(C)C` (stereo partly shown) [AM731], the “selectivity for the CB2 receptor” value at CB2 receptor was “selective agonists”. Moreover, the Ki on CB2 receptor (setting [1]) was under 10 nM; at CB2 receptor (setting [2]), 6.1 nM; on CB1 receptor (setting [3]) it was 60.6 nM.
Regarding `CC1=CC[C@@H]2[C@@H](C1)c1c(O)cc(C34CC5CC(CC(C5)C3)C4)cc1OC2(C)C` [AM411], the Ki at CB2 receptor (mouse spleen, [3H]CP-55,940, Ki from IC50 by Cheng and Prusoff, read-out: Ki in nM for the CB2 Receptor) is 52 nM; at CB1 receptor (setting [4]), 6.9 nM. Also, the “selectivity for the CB1 receptor” value at CB1 receptor (CB1 over CB2, statement in words) is listed as “selective agonists”.
`CC1=CC[C@@H]2[C@@H](C1)c1c(O)cc(C3CC4CCC3(C)C4(C)C)cc1OC2(C)C` (stereo partly shown) [AM732]: the “selectivity for the CB2 receptor” value on CB2 receptor is “selective agonists”. The Ki at CB2 receptor (setting [2]) turned out to be 2 nM; on CB1 receptor (setting [3]), 20.1 nM.
In the case of `CCCCCCC1(c2cc(O)c3c(c2)OC(C)(C)[C@@H]2CC=C(C)C[C@@H]32)SCCS1` [AMG3], the Ki is 1.7 nM at CB2 receptor (setting [2]), under 1 nM at CB1 receptor (setting [5]) and 0.32 nM on CB1 receptor (setting [4]).
With `CCCCCc1cc(O)c2c(c1)OC(C)(C)[C@@H]1CC=C(C)C[C@@H]21` [Δ^8-tetrahydrocannabinol, reference compound], the Ki on CB2 receptor (setting [1]) stood at 14 nM.
With `CCCCCCC1(c2cc(O)c3c(c2)OC(C)(C)[C@@H]2CC=C(C)C[C@@H]32)OCCO1` [AMG14], the values for the Ki at CB1 receptor (setting [5]) and at CB1 receptor (setting [3]) were under 1 nM and 0.2 nM, respectively.
